Test results from PubChem BioAssay (NCI).
Several values for one entry are separate records, joined by “and”; a condition that tells them apart may be missing. Equal values may be shown once.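 96-well plates; 48 h exposure; 5 concentrations. Endpoints by linear interpolation between flanking doses. Not reached: highest tested concentration assigned. Abbreviation: GI50, concentration required for 50% inhibition of growth. Definition used: TGI = concentration required for complete inhibition of growth.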

What follows are molecules tested on HT29 colon (assay: DTP human tumour cell line panel, 48 h).

| Structure (SMILES) | TGI [µM] | GI50 [µM] |
| --- | --- | --- |
| COC(=O)C(=Cc1cc(OC)c(OC)c(OC)c1-c1cc2c(cc1C1(C)OCCS1)OCO2)C(=O)OC (stereo unspecified) | > 100 | – |
| C#CC1/C(=C\C(=O)OC)CCCC1O (stereo unspecified) | > 100 | – |
| CC12CCC(=O)C[C@H]1CCC(OC=O)C2Br (stereo partly specified) | > 100 | – |
| Clc1cc2c(c(CSc3nc4ccccc4n4cccc34)c1)OCOC2 | > 100 | > 100 |
| CN1CCN(c2ccc(Nc3cc(-c4cccc(-n5ccc6cc(C7CC7)cc(F)c6c5=O)c4CO)cn(C)c3=O)nc2)CC1 | 13.9 | 3 |
| COc1ccc(OCC(=O)O)c2c1CCCC2=O | > 100 | – |
| COc1ccc2c(c1OCC(=O)O)C(=O)C(CCC(=O)O)CC2 (stereo unspecified) | > 100 | – |
| Cc1ccc2nc(/C(=C/c3ccc(/C=C(\NC(=O)c4ccccc4)c4nc5ccc(C)cc5[nH]4)c(C)c3)NC(=O)c3ccccc3)[nH]c2c1 | > 100 | – |
| COC1C(OC(=S)Nc2ccccc2)c2ccccc2N1C(C)=O (stereo unspecified) | > 100 | – |
| O=C(Nc1cccc(Cl)c1)C(=O)C(C(=O)c1ccc2ccccc2c1)C1OC(=O)c2ccccc21 (stereo unspecified) | 84.5 | – |
| CC1=Cc2cccc(C)c2C(=O)C1=O | 32.3 | – |
| CC(C)(/C=C(\C#N)C(=O)N1CCC[C@@H](n2nc(-c3ccc(Oc4ccccc4)cc3F)c3c(N)ncnc32)C1)N1CCN(C2COC2)CC1 | 23.6 | 4.69 |
| Cc1ccc(C)c(NC(=O)c2cccc([N+](=O)[O-])c2O)c1 | > 100 | – |
| COCC(OC)C(CC=C(C#N)C#N)OC (stereo unspecified) | > 100 | – |
| NC1CCN(Cc2ccccc2)CC1 | > 100 | > 100 |
| On1c(-c2ccccc2)c(-c2ccccc2N2CCCC2)c2ccccc21 | > 100 | – |
| NNC(=O)CNc1cccc(Br)c1 | > 100 | – |
| N#CC(C(=O)/C(=N\NC(N)=O)C(C#N)c1ccc(Cl)cc1)c1ccc(Cl)cc1 (stereo unspecified) | > 100 | – |
| CC(C)(C)c1cc(C(P(=O)(O)O)P(=O)(O)O)cc(C(C)(C)C)c1O | > 100 | – |

| Structure (SMILES) | TGI [µM] | GI50 [µM] |
| --- | --- | --- |
| CC(C)C1=Cc2ccc3c(c2C(=O)C1=O)CCCC3(C)C | 46.2 | – |
| CSc1nc(SC)c2c(C#N)[nH]nc2n1 | > 100 | – |
| COc1c(O)c2c(=O)cc3c4c5c(cc(=O)c6c(O)c(OC)c(CC(C)O)c(c(c1CC(C)O)c24)c65)OCO3 (stereo unspecified) | 8.58 | – |
| CC(=O)Nc1ccc(-c2csc(Nc3cccc(-c4csc(C)n4)c3)n2)cc1 | > 50 | 2.38 |
| COc1ccc(CCN(C)C2CCC(C#N)(c3ccc(OC)c(OC)c3)CC2)cc1OC (stereo unspecified) | > 100 | – |
| COc1ccc(C(=O)Nc2ccc(O)c(=O)cc2)cc1 | 44.1 | – |
| CCOC(=O)c1nc2c(OC)nn(O)cc-2c1[N+](=O)[O-] | 29.3 | – |
| C/C(CC(=O)Nc1ccc(C)c(C)c1)=N\N(c1ccccc1)c1ccccc1 | > 100 | – |
| COC(=O)/C(=N\NC(N)=S)C(C(=O)OC)C(=O)C(=O)Nc1ccc(C)cc1 (stereo unspecified) | > 100 | – |
| O=C(OC1CCC(=C2SCCCS2)[C@H]1C1SCCCS1)c1ccccc1 (stereo partly specified) | > 100 | – |
| O=C1CCC2(c3ccc(Cl)cc3)Nc3cc(Cl)ccc3N12 (stereo unspecified) | 25.2 | – |
| O=C(/C(=C/c1ccc(Cl)cc1)c1ccccc1)c1ccccc1 | 38.4 | – |
| CC1(C)COC(c2cccc3c2C(=O)c2cccc(Cl)c2-3)=N1 | > 100 | – |
| CN(C)CCC(/C=C/c1ccccc1)=N\Nc1ccccc1 | 15.4 | – |
| c1ccc2c(OCCSCCCCCCCCCCSCCOc3cccc4ccccc34)cccc2c1 | > 100 | – |
| NC(N)=N/N=C/c1c(Cl)cccc1Cl | 43.4 | 17 |
| Cc1cc2c(=O)c3ccccc3[nH]c2c(C(N)=O)c1C | > 100 | – |
| O=C(Nc1cccc(C(F)(F)F)c1)c1ccc(NC2=C(Cl)C(=O)N(Cc3ccc(Cl)cc3Cl)C2=O)cc1 | 36.8 | 3.82 |
| CN1CCC(=O)/C(=C/c2ccccc2)C1 | 11 | – |

The molecules below were run on DU-145 prostate (assay: DTP human tumour cell line panel, 48 h).

| Structure (SMILES) | GI50 [µM] | TGI [µM] |
| --- | --- | --- |
| Clc1cc2c(c(CSc3nc4ccccc4n4cccc34)c1)OCOC2 | > 100 | > 100 |
| CN1CCN(c2ccc(Nc3cc(-c4cccc(-n5ccc6cc(C7CC7)cc(F)c6c5=O)c4CO)cn(C)c3=O)nc2)CC1 | 7.9 | 22 |
| COc1cnc2c(c1)C(=O)c1c-2n(CCCNC2=NCCS2)c(=O)c2cc([N+](=O)[O-])ccc12 | < 0.01 | 1.38 |
| CC(C)(/C=C(\C#N)C(=O)N1CCC[C@@H](n2nc(-c3ccc(Oc4ccccc4)cc3F)c3c(N)ncnc32)C1)N1CCN(C2COC2)CC1 | 12.3 | 26.8 |
| NNC(=O)CNc1cccc(Br)c1 | – | > 100 |
| Nc1ncn([C@@H]2O[C@H](CO)[C@@H](O)[C@H]2O)c(=O)n1 | 0.775 | 9.34 |
| CC(=O)Nc1ccc(-c2csc(Nc3cccc(-c4csc(C)n4)c3)n2)cc1 | 3.85 | 22.7 |
| COc1ccc(C(=O)Nc2ccc(O)c(=O)cc2)cc1 | – | 59 |
| NC(N)=N/N=C/c1c(Cl)cccc1Cl | 23.1 | > 100 |
| O=C(Nc1cccc(C(F)(F)F)c1)c1ccc(NC2=C(Cl)C(=O)N(Cc3ccc(Cl)cc3Cl)C2=O)cc1 | 11.8 | 30.2 |

These molecules were tested on MDA-MB-231 breast (assay: DTP human tumour cell line panel, 48 h).

| Structure (SMILES) | GI50 [µM] | TGI [µM] |
| --- | --- | --- |
| Clc1cc2c(c(CSc3nc4ccccc4n4cccc34)c1)OCOC2 | 12.7 | > 100 |
| CN1CCN(c2ccc(Nc3cc(-c4cccc(-n5ccc6cc(C7CC7)cc(F)c6c5=O)c4CO)cn(C)c3=O)nc2)CC1 | 2.26 | 6.17 |
| CC(C)(/C=C(\C#N)C(=O)N1CCC[C@@H](n2nc(-c3ccc(Oc4ccccc4)cc3F)c3c(N)ncnc32)C1)N1CCN(C2COC2)CC1 | 10.2 | 27.7 |
| NC1CCN(Cc2ccccc2)CC1 | > 100 | > 100 |
| NNC(=O)CNc1cccc(Br)c1 | – | > 100 |
| Nc1ncn([C@@H]2O[C@H](CO)[C@@H](O)[C@H]2O)c(=O)n1 | 1.61 | > 100 |
| CC(=O)Nc1ccc(-c2csc(Nc3cccc(-c4csc(C)n4)c3)n2)cc1 | 1.28 | 5.07 |
| COc1ccc(C(=O)Nc2ccc(O)c(=O)cc2)cc1 | – | > 100 |
| O=C(Nc1cccc(C(F)(F)F)c1)c1ccc(NC2=C(Cl)C(=O)N(Cc3ccc(Cl)cc3Cl)C2=O)cc1 | 12.5 | 27.6 |

The molecules below were run on SF-268 CNS (assay: DTP human tumour cell line panel, 48 h).

| Structure (SMILES) | TGI | GI50 [µM] |
| --- | --- | --- |
| COC(=O)C(=Cc1cc(OC)c(OC)c(OC)c1-c1cc2c(cc1C1(C)OCCS1)OCO2)C(=O)OC (stereo unspecified) | > 100 µM | – |
| C#CC1/C(=C\C(=O)OC)CCCC1O (stereo unspecified) | > 100 µM | – |
| CC12CCC(=O)C[C@H]1CCC(OC=O)C2Br (stereo partly specified) | > 100 µM | – |
| Clc1cc2c(c(CSc3nc4ccccc4n4cccc34)c1)OCOC2 | > 100 µM | 31.3 |
| CN1CCN(c2ccc(Nc3cc(-c4cccc(-n5ccc6cc(C7CC7)cc(F)c6c5=O)c4CO)cn(C)c3=O)nc2)CC1 | 20.9 µM | 5.58 |
| COc1cnc2c(c1)C(=O)c1c-2n(CCCNC2=NCCS2)c(=O)c2cc([N+](=O)[O-])ccc12 | 1.88 µM | < 0.01 |
| COc1ccc(OCC(=O)O)c2c1CCCC2=O | > 100 µM | – |
| Cc1nc(Nc2ccc(Cl)cc2)sc1C(=O)NNC(=S)NN | 48.5 µM | – |
| CCOC(=O)N[C@H]1CCc2cc(OC)c(OC)c(OC)c2-c2ccc(SC)c(=O)cc21 | 47.2 µM and > 100 µM | – |
| Cc1ccc2nc(/C(=C/c3ccc(/C=C(\NC(=O)c4ccccc4)c4nc5ccc(C)cc5[nH]4)c(C)c3)NC(=O)c3ccccc3)[nH]c2c1 | > 100 µM | – |
| O=C(Nc1cccc(Cl)c1)C(=O)C(C(=O)c1ccc2ccccc2c1)C1OC(=O)c2ccccc21 (stereo unspecified) | 57.5 µM | – |
| CC1=Cc2cccc(C)c2C(=O)C1=O | 25.9 µM | – |
| CC(C)(/C=C(\C#N)C(=O)N1CCC[C@@H](n2nc(-c3ccc(Oc4ccccc4)cc3F)c3c(N)ncnc32)C1)N1CCN(C2COC2)CC1 | 21.8 µM | 5.37 |
| Cc1ccc(C)c(NC(=O)c2cccc([N+](=O)[O-])c2O)c1 | > 100 µM | – |
| COCC(OC)C(CC=C(C#N)C#N)OC (stereo unspecified) | > 100 µM | – |
| NC1CCN(Cc2ccccc2)CC1 | > 100 µM | > 100 |
| On1c(-c2ccccc2)c(-c2ccccc2N2CCCC2)c2ccccc21 | > 100 µM | – |
